What all share (assay): NCI tumour cell line growth inhibition, 48 h
Assay [1] concerns ACHN renal.
For assay [2], the system named is IGROV1 ovarian.
Assay [3] concerns LOX IMVI melanoma.
Assay [4] concerns NCI-H23 lung.
Assay [5] concerns OVCAR-8 ovarian.
In assay [6] the test system is RPMI-8226 leukemia.
Assay [7] deals with SNB-75 CNS.
Assay [8] relates to NCI-H226 lung.
In assay [9] the test system is SN12C renal.
Assay [10] deals with MALME-3M melanoma.

Several values for one entry are separate records, joined by “and”; a condition that tells them apart may be missing. Equal values may be shown once.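 All cell lines were grown in 96-well plates and treated with compound for 48 hours. Abbreviation: GI50, concentration required for 50% inhibition of growth. At the TGI there is no net growth.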 Where only a bound is given, the exact number is not on record here.

On to `Cc1cc2nc3ccc(N=Nc4ccc(N(C)C)cc4)cc3n(-c3ccccc3)c-2cc1=N`, for which the GI50 in assay [1] was 0.0233 µM and 0.21 µM; in [2], 0.0221 µM and 0.0328 µM; in assay [3] it was 0.0259 µM; in [4], 0.0253 µM; in assay [5], 0.0232 µM and 0.0414 µM; in assay [6] it was 0.00254 µM. Besides, the GI50 in [7] is 0.05 µM. Also, the TGI in assay [3] was found to be 0.117 µM; in assay [4], 0.418 µM; in [6], 0.02 µM; in [7], 1.25 µM.
For the compound `Nc1c(C(=O)Nc2cccc3ccccc23)sc2nc3c(cc12)CCCC3`, the GI50 was 4.37 µM in [1]; 2.34 µM in [2]; 1.75 µM in assay [3]; 17.5 µM in [8]; 3.43 µM in assay [4]; 4.56 µM in assay [5]. Moreover, the figures for the GI50 in [6], in [9] and in assay [7] were 2.77 µM, 6 µM and 1.04 µM, respectively. Also, the TGI in [1], in assay [2], in [3], in assay [8], in assay [4] and in [5] was over 100 µM throughout. For the same compound, the TGI in assay [6], in assay [9] and in assay [7] was over 100 µM each time.
Take `COc1cc2ccc(CC#N)cc2cc1OC`: the TGI in assay [1], in assay [3], in assay [10], in assay [8], in assay [4] and in assay [5] was over 100 µM throughout. Also, the TGI in [9] was over 100 µM.
For `CC(C)O/C=C1\C(=O)C2(SCCS2)[C@H]2CCCC[C@@H]12`, the TGI in assay [1] is over 100 µM; in assay [2] it was over 100 µM; in assay [10], over 100 µM; in assay [8], over 100 µM; in [5], over 100 µM; in [6], 81 µM. In addition, the TGI in assay [9] and in [7] was over 100 µM in each case.
In the case of `COc1ccc(-c2nnc3n(C)c(=O)c4ccccc4n23)cc1O`, the GI50 was 1.15 µM in [1]; 2.69 µM in assay [2]; 1.25 µM in [3]; 16.9 µM in [8]; 3.01 µM in assay [4]; 1.52 µM in assay [5]. The GI50 was 5.01 µM in [6], 1.47 µM in [9] and 0.161 µM in assay [7]. Also, the TGI in assay [1] is over 100 µM; in assay [2], over 86.3 µM; in assay [3] it was over 100 µM; in assay [8], over 100 µM; in assay [4], over 100 µM; in assay [5], over 100 µM. Moreover, the results for the TGI in assay [6], in [9] and in assay [7] were over 100 µM, over 100 µM and 27.6 µM, respectively.
Take `O=C(N/C(=C\c1ccc([N+](=O)[O-])cc1)c1nc2[nH]c(=S)[nH]c(=O)c2[nH]1)c1ccccc1`: the TGI in assay [1], in assay [2], in assay [10], in assay [4], in [5] and in assay [9] was over 100 µM each time.
`COc1ccc2nc(-c3ccccc3)cc(Nc3ccc(/C(C)=N/O)cc3)c2c1`: the GI50 is 14.1 µM in assay [1]; 13.4 µM in assay [2]; 2.8 µM in [10]; 1.95 µM in [8]; 2.51 µM in assay [4]; 3.02 µM in assay [5]. For the same compound, the GI50 in assay [6] was 2.16 µM; in [9] it was 1.7 µM; in [7], 3.54 µM. Further, the TGI in assay [1] was 29.3 µM; in assay [2], over 22 µM; in assay [10], 9.92 µM; in [8] it was 4.39 µM; in assay [4], over 20.9 µM; in assay [5] it was over 27.5 µM. The figures for the TGI in assay [6], in [9] and in assay [7] were 7.06 µM, 3.19 µM and over 100 µM, respectively.
`CSC(=S)N(C)NC(=O)c1cccc(C(=O)NN(C)C(=S)SC)n1`: the TGI was over 100 µM in [1]; 49.9 µM in assay [2]; over 100 µM in assay [3]; 81.5 µM in assay [8]; over 100 µM in [4]; over 100 µM in assay [5]. Also, the TGI in [6] is over 100 µM; in assay [9], 92 µM; in assay [7] it was 98 µM.
With `CC1=C(C(=O)Nc2ccccc2C)C(c2ccc(N(C)C)cc2)C(C(=O)Nc2ccccc2C)=C(C)N1`, the TGI in assay [1], in [2], in [3], in assay [10], in assay [8] and in assay [4] was over 100 µM each time. In addition, the TGI in assay [5], in assay [6] and in [9] was over 100 µM throughout.
With `CCCNC(=O)c1cc2ccccc2cc1C(=O)OC`, the TGI in assay [1], in [2], in [10], in [8], in [4] and in assay [5] was over 100 µM in each case. For the same compound, the TGI in [6] is over 100 µM; in assay [9], over 100 µM; in [7] it was 75.8 µM.
On to `N#Cc1cc2cc3c4c(c2oc1=O)CCCN4CCC3`, for which the TGI in [1], in [2], in [3], in assay [8], in [4] and in assay [5] was over 100 µM in each case. Further, the TGI in assay [6], in assay [9] and in assay [7] was over 100 µM each time.
Regarding `BrP(NC1CCCCCC1)(c1ccccc1)(c1ccccc1)c1ccccc1`, the TGI in assay [1] turned out to be 9.12 µM; in [2], 21.7 µM; in [3], 10.4 µM; in [10] it was 12.5 µM; in assay [8], 33 µM; in [4], 27.4 µM. Also, the TGI in [5] stood at 10.7 µM; in [6], 5.41 µM; in [9], 16.1 µM.
On to `Cc1cc[c-]cc1.Fc1c[c-]c(-c2ccccn2)c(F)c1.N#CCC[PH+](CCC#N)c1ccccc1.[Pt+2]`, for which the GI50 in [1] was 3.33 µM; in assay [2], 2.89 µM; in assay [3], 2.26 µM; in [8], 2.62 µM; in [4] it was 3.45 µM; in [5], 4 µM. In addition, the figures for the GI50 in assay [6] and in assay [9] were 3.3 µM and 3.17 µM, respectively. Besides, the TGI in [1] was 20.9 µM; in assay [2] it was 21.9 µM; in [3] it was 5.18 µM; in assay [8], 7.06 µM; in [4], 12.9 µM; in assay [5], over 100 µM. In addition, the TGI in assay [6] was found to be 31.2 µM; in assay [9], 36.1 µM.
For `COc1ccc(/C=C/c2nc(N3CCOCC3)c3cc(F)c(F)cc3n2)cc1OC`, the GI50 in assay [1] was 4.35 µM; in assay [2], 47.4 µM; in assay [3], 5.07 µM; in assay [8] it was 3.07 µM; in assay [4], 6.05 µM; in assay [5], 4.57 µM. Further, the GI50 in assay [6] was 2.7 µM; in assay [9] it was 5.36 µM; in assay [7] it was 6.14 µM. In addition, the TGI in [1], in assay [2], in assay [3], in [8], in assay [4] and in assay [5] was over 100 µM in each case. For the same compound, the TGI in [6], in assay [9] and in [7] was over 100 µM throughout.
`Cn1cc(-c2csc(-c3cn(CCN4CCOCC4)c4ccc(F)cc34)n2)c2cccnc21`: the GI50 in [1] is 2.82 µM; in assay [2], 2.91 µM; in assay [10], 2.88 µM; in [8], 1.86 µM; in assay [4] it was 2.47 µM; in assay [5], 2.75 µM. Further, the GI50 was 1.68 µM in [6], 3.15 µM in assay [9] and 2.57 µM in assay [7]. In addition, the TGI in assay [1] turned out to be 12.9 µM; in [2], 14.1 µM; in assay [10], 12.3 µM; in assay [8], 5.51 µM; in [4] it was 7.89 µM; in assay [5], 7.88 µM. Besides, the results for the TGI in [6], in [9] and in assay [7] were 4.96 µM, over 100 µM and 50.5 µM, respectively.
With `OCCc1cnco1`, the TGI in [2], in assay [3], in assay [8], in assay [4], in assay [5] and in [6] was over 100 µM each time. Further, the TGI in assay [9] and in assay [7] was over 100 µM each time.
As to `O=S(=O)(NC(=S)Nc1ccccc1)c1ccc(N2N=C3c4ccccc4CC3C2c2ccc(Cl)cc2)cc1` (configuration not stated), the GI50 was 25.8 µM in assay [1]; 20.2 µM in [2]; 19.5 µM in assay [3]; 41.4 µM in [8]; 26.8 µM in assay [5]; 19.6 µM in assay [6]. Further, the GI50 in [9] was 24.5 µM; in [7], 39.7 µM. Also, the TGI in [1] is 60.7 µM; in assay [2], 49.3 µM; in assay [3], 39 µM; in assay [8], over 100 µM; in assay [5], 71.1 µM; in assay [6], 66.7 µM. Moreover, the values for the TGI in [9] and in assay [7] were 55.6 µM and over 100 µM, respectively.
Take `CC1SC2=NC3=C(c4ccccc4C3=O)C(c3ccc(Br)cc3)N2C1=O` (configuration not stated): the TGI in assay [1], in assay [2], in assay [10], in assay [8], in assay [4] and in [5] was over 100 µM in each case. The TGI is over 100 µM in assay [6], over 100 µM in assay [9] and 96.9 µM in assay [7].
Regarding `CC(C)C(/C=C/c1ccccc1)=N\NC(=O)N/N=C(/C=C/c1ccccc1)C(C)C`, the TGI in assay [1] was over 100 µM; in assay [2], over 100 µM; in assay [3], over 100 µM; in assay [8], 55.4 µM; in assay [4], over 100 µM; in [5], over 100 µM. The TGI in assay [6] is over 100 µM; in assay [9] it was 33.2 µM; in assay [7] it was 92.5 µM.
For the compound `CC1(C)CCc2cc3c(cc2O1)OC(C)(C)C1c2c(ccc4c2CCC(C)(C)O4)OC31` (configuration not stated), the TGI in assay [1], in [2], in assay [3], in assay [8], in assay [4] and in [5] was over 100 µM throughout. In addition, the TGI in assay [6] and in assay [9] was over 100 µM throughout.
Turning to `COc1ccc(CNc2nc3ccccc3nc2-c2cccs2)cc1OC`, the TGI in [1], in assay [10], in assay [8], in [4], in assay [5] and in assay [6] was over 100 µM each time. Besides, in assay [9], the TGI is over 100 µM.
Turning to `CC(=O)OCCC/C(=C\c1ccc2ccccc2c1)[N+](=O)[O-]`, the GI50 was 1.89 µM in [1]; 1.89 µM in assay [2]; 1.91 µM in [10]; 1.76 µM in assay [8]; 1.79 µM in assay [4]; 2.06 µM in assay [5]. The values for the GI50 in assay [6], in [9] and in assay [7] were 1.55 µM, 1.54 µM and 1.45 µM, respectively. Moreover, the TGI in assay [1] came out at 3.68 µM; in assay [2], 3.98 µM; in assay [10] it was 4.9 µM; in assay [8] it was 4.16 µM; in [4], 4.65 µM; in assay [5] it was 5.09 µM. The values for the TGI in assay [6], in [9] and in [7] were 3.72 µM, 3.32 µM and 2.99 µM, respectively.
As to `COc1cc2c(cc1OCCCCC(=O)Nc1ccc(-c3nc4ccccc4s3)cc1)N=C[C@@H]1CCCN1C2=O`, the GI50 was 3 µM in assay [1]; 0.695 µM in [2]; 1.57 µM in assay [3]; 2.91 µM in assay [8]; 1.57 µM in assay [5]; 1.45 µM in assay [6]. In addition, in assay [9], the GI50 is 2.81 µM. Moreover, the TGI in [1] is 8.53 µM; in [2], 2.27 µM; in assay [3], 2.91 µM; in assay [8] it was 7.83 µM; in [5], 4.5 µM; in assay [6] it was 3.96 µM. In [9], the TGI turned out to be 9.72 µM.

(Values after PubChem BioAssay (NCI).)
